From PubChem BioAssay AID1963836 (Molecular Pharmacology Branch, DTP, NCI, 2024)

Test system: 857933-349-R-J2-PDC complex spheroid viability
Experiment: Anticancer human tumor 857933-349-R-J2-PDC patient-derived colon adenocarcinoma cell line growth inhibition [POLQ]
Conditions: for IC50: curve of first compound; for viability, T/C: stronger effect = lower value
Method in brief: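 Three-cell-type spheroids modelling solid tumor plus stroma served as the readout system; POL inhibitors were tested individually and in combination, concentration ranges set by clinical Cmax where known.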

[1] = second compound 0.0316 µM, first compound 0.00316 µM
[2] = second compound 0.0316 µM, first compound 0.01 µM
[3] = second compound 0.0316 µM, first compound 0.0316 µM
[4] = second compound 0.0316 µM, first compound 0.1 µM
[5] = second compound 0.0316 µM, first compound 0.316 µM
[6] = second compound 0.0316 µM, first compound 1 µM
[7] = second compound 0.1 µM, first compound 0.00316 µM
[8] = second compound 0.1 µM, first compound 0.01 µM
[9] = second compound 0.1 µM, first compound 0.0316 µM
[10] = second compound 0.1 µM, first compound 0.1 µM
[11] = second compound 0.1 µM, first compound 0.316 µM
[12] = second compound 0.1 µM, first compound 1 µM
[13] = second compound 0.316 µM, first compound 0.00316 µM
[14] = second compound 0.316 µM, first compound 0.01 µM
[15] = second compound 0.316 µM, first compound 0.0316 µM
[16] = second compound 0.316 µM, first compound 0.1 µM
[17] = second compound 0.316 µM, first compound 0.316 µM
[18] = second compound 0.316 µM, first compound 1 µM
[19] = second compound 1 µM, first compound 0.00316 µM
[20] = second compound 1 µM, first compound 0.01 µM
[21] = second compound 1 µM, first compound 0.0316 µM
[22] = second compound 1 µM, first compound 0.1 µM
[23] = second compound 1 µM, first compound 0.316 µM
[24] = second compound 1 µM, first compound 1 µM
[25] = second compound 3.16 µM, first compound 0.00316 µM
[26] = second compound 3.16 µM, first compound 0.01 µM
[27] = second compound 3.16 µM, first compound 0.0316 µM
[28] = second compound 3.16 µM, first compound 0.1 µM
[29] = second compound 3.16 µM, first compound 0.316 µM
[30] = second compound 3.16 µM, first compound 1 µM
[31] = second compound 10 µM, first compound 0.00316 µM
[32] = second compound 10 µM, first compound 0.01 µM
[33] = second compound 10 µM, first compound 0.0316 µM
[34] = second compound 10 µM, first compound 0.1 µM
[35] = second compound 10 µM, first compound 0.316 µM
[36] = second compound 10 µM, first compound 1 µM
[37] = second compound 0.0316 µM, first compound 3.16 µM
[38] = second compound 0.0316 µM, first compound 10 µM
[39] = second compound 0.1 µM, first compound 3.16 µM
[40] = second compound 0.1 µM, first compound 10 µM
[41] = second compound 0.316 µM, first compound 3.16 µM
[42] = second compound 0.316 µM, first compound 10 µM
[43] = second compound 1 µM, first compound 3.16 µM
[44] = second compound 1 µM, first compound 10 µM
[45] = second compound 3.16 µM, first compound 3.16 µM
[46] = second compound 3.16 µM, first compound 10 µM
[47] = second compound 10 µM, first compound 3.16 µM
[48] = second compound 10 µM, first compound 10 µM
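Further: spheroids exposed to compounds for seven days before readout.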

SMILES: COc1cccc(OCCCN)c1-c1cc(Nc2cnc(C#N)cn2)n[nH]1 + COC1C(OC(N)=O)C(O)C(Oc2ccc3c(O)c(NC(=O)c4ccc(O)c(CC=C(C)C)c4)c(=O)oc3c2C)OC1(C)C
- IC50 (second compound 0.0316 µM): 89.5 nM
- IC50 (second compound 0.1 µM): 66.9 nM
- IC50 (second compound 0.316 µM): 155 nM
- IC50 (second compound 1 µM): 86.9 nM
- IC50 (second compound 3.16 µM): 204 nM
- IC50 (second compound 10 µM): 170 nM
- viability, T/C [1]: 102%
- viability, T/C [2]: 75.5%
- viability, T/C [3]: 61.3%
- viability, T/C [4]: 48.8%
- viability, T/C [5]: 44.1%
- viability, T/C [6]: 29.9%
- viability, T/C [7]: 79.5%
- viability, T/C [8]: 113%
- viability, T/C [9]: 58.8%
- viability, T/C [10]: 51.5%
- viability, T/C [11]: 48.9%
- viability, T/C [12]: 35.4%
- viability, T/C [13]: 85.2%
- viability, T/C [14]: 86.1%
- viability, T/C [15]: 62.6%
- viability, T/C [16]: 53.2%
- viability, T/C [17]: 48.5%
- viability, T/C [18]: 35.4%
- viability, T/C [19]: 95%
- viability, T/C [20]: 84.2%
- viability, T/C [21]: 52.8%
- viability, T/C [22]: 51.2%
- viability, T/C [23]: 46.5%
- viability, T/C [24]: 32.2%
- viability, T/C [25]: 93.7%
- viability, T/C [26]: 89.1%
- viability, T/C [27]: 79.5%
- viability, T/C [28]: 56.2%
- viability, T/C [29]: 47.5%
- viability, T/C [30]: 33.6%
- viability, T/C [31]: 88%
- viability, T/C [32]: 77.7%
- viability, T/C [33]: 70.5%
- viability, T/C [34]: 54.2%
- viability, T/C [35]: 44%
- viability, T/C [36]: 31%

SMILES: O=C(Nc1ccc(O)c(NS(=O)(=O)c2ccc(F)cc2)c1)c1ccc(-c2ccccc2)cc1 + Nc1ccc(C#CCN(C(=O)Cc2ncc(C(F)(F)F)cc2C(F)(F)F)c2ccc(F)cc2)nn1
- IC50 (second compound 0.0316 µM): > 10000 nM
- IC50 (second compound 0.1 µM): > 10000 nM
- IC50 (second compound 0.316 µM): > 10000 nM
- IC50 (second compound 1 µM): > 10000 nM
- IC50 (second compound 3.16 µM): > 10000 nM
- IC50 (second compound 10 µM): > 10000 nM
- viability, T/C [3]: 95.1%
- viability, T/C [4]: 108%
- viability, T/C [5]: 103%
- viability, T/C [6]: 111%
- viability, T/C [37]: 110%
- viability, T/C [38]: 92%
- viability, T/C [9]: 90.1%
- viability, T/C [10]: 96.6%
- viability, T/C [11]: 97%
- viability, T/C [12]: 103%
- viability, T/C [39]: 119%
- viability, T/C [40]: 103%
- viability, T/C [15]: 84.2%
- viability, T/C [16]: 98.8%
- viability, T/C [17]: 91.2%
- viability, T/C [18]: 102%
- viability, T/C [41]: 110%
- viability, T/C [42]: 98.8%
- viability, T/C [21]: 90.7%
- viability, T/C [22]: 106%
- viability, T/C [23]: 101%
- viability, T/C [24]: 97.9%
- viability, T/C [43]: 89.7%
- viability, T/C [44]: 94.2%
- viability, T/C [27]: 97%
- viability, T/C [28]: 96.2%
- viability, T/C [29]: 104%
- viability, T/C [30]: 85.1%
- viability, T/C [45]: 104%
- viability, T/C [46]: 99.7%
- viability, T/C [33]: 103%
- viability, T/C [34]: 105%
- viability, T/C [35]: 98.6%
- viability, T/C [36]: 107%
- viability, T/C [47]: 90.8%
- viability, T/C [48]: 113%

SMILES: Cn1ncnc1[C@H]1c2n[nH]c(=O)c3cc(F)cc(c23)N[C@@H]1c1ccc(F)cc1 + Nc1ccc(C#CCN(C(=O)Cc2ncc(C(F)(F)F)cc2C(F)(F)F)c2ccc(F)cc2)nn1
- IC50 (second compound 0.0316 µM): > 100 nM
- IC50 (second compound 0.1 µM): > 100 nM
- IC50 (second compound 0.316 µM): > 100 nM
- IC50 (second compound 1 µM): > 100 nM
- IC50 (second compound 3.16 µM): > 100 nM
- IC50 (second compound 10 µM): > 100 nM
- viability, T/C (second compound 0.0316 µM, first compound 0.000316 µM): 90.9%
- viability, T/C (second compound 0.0316 µM, first compound 0.001 µM): 83.9%
- viability, T/C [1]: 80.7%
- viability, T/C [2]: 90%
- viability, T/C [3]: 95%
- viability, T/C [4]: 85.1%
- viability, T/C (second compound 0.1 µM, first compound 0.000316 µM): 92.7%
- viability, T/C (second compound 0.1 µM, first compound 0.001 µM): 92.7%
- viability, T/C [7]: 94%
- viability, T/C [8]: 104%
- viability, T/C [9]: 103%
- viability, T/C [10]: 91.5%
- viability, T/C (second compound 0.316 µM, first compound 0.000316 µM): 104%
- viability, T/C (second compound 0.316 µM, first compound 0.001 µM): 101%
- viability, T/C [13]: 97%
- viability, T/C [14]: 105%
- viability, T/C [15]: 75%
- viability, T/C [16]: 97.6%
- viability, T/C (second compound 1 µM, first compound 0.000316 µM): 105%
- viability, T/C (second compound 1 µM, first compound 0.001 µM): 85.8%
- viability, T/C [19]: 86%
- viability, T/C [20]: 97.5%
- viability, T/C [21]: 93.9%
- viability, T/C [22]: 93.6%
- viability, T/C (second compound 3.16 µM, first compound 0.000316 µM): 86.2%
- viability, T/C (second compound 3.16 µM, first compound 0.001 µM): 80.2%
- viability, T/C [25]: 93.5%
- viability, T/C [26]: 98%
- viability, T/C [27]: 111%
- viability, T/C [28]: 94.2%
- viability, T/C (second compound 10 µM, first compound 0.000316 µM): 84.8%
- viability, T/C (second compound 10 µM, first compound 0.001 µM): 82.1%
- viability, T/C [31]: 98.3%
- viability, T/C [32]: 92.2%
- viability, T/C [33]: 93.2%
- viability, T/C [34]: 61.7%

SMILES: CCc1cc2c(N3CCc4c(cc(Cn5ccnc5)cc4-c4cn(C)nc4C(F)(F)F)C3=O)cc(C)nc2c(OC)n1 + Nc1ccc(C#CCN(C(=O)Cc2ncc(C(F)(F)F)cc2C(F)(F)F)c2ccc(F)cc2)nn1
- IC50 (second compound 0.0316 µM): > 10000 nM
- IC50 (second compound 0.1 µM): > 10000 nM
- IC50 (second compound 0.316 µM): > 10000 nM
- IC50 (second compound 1 µM): > 10000 nM
- IC50 (second compound 3.16 µM): > 10000 nM
- IC50 (second compound 10 µM): > 10000 nM
- viability, T/C [3]: 94.9%
- viability, T/C [4]: 92.8%
- viability, T/C [5]: 80.3%
- viability, T/C [6]: 79.8%
- viability, T/C [37]: 67.4%
- viability, T/C [38]: 62.8%
- viability, T/C [9]: 92%
- viability, T/C [10]: 101%
- viability, T/C [11]: 76.2%
- viability, T/C [12]: 73.5%
- viability, T/C [39]: 77.7%
- viability, T/C [40]: 55.1%
- viability, T/C [15]: 89%
- viability, T/C [16]: 86.8%
- viability, T/C [17]: 86.5%
- viability, T/C [18]: 81%
- viability, T/C [41]: 65.7%
- viability, T/C [42]: 57.1%
- viability, T/C [21]: 95.9%
- viability, T/C [22]: 96.9%
- viability, T/C [23]: 86.8%
- viability, T/C [24]: 78.8%
- viability, T/C [43]: 75.3%
- viability, T/C [44]: 51.4%
- viability, T/C [27]: 87.8%
- viability, T/C [28]: 87%
- viability, T/C [29]: 97.7%
- viability, T/C [30]: 69.3%
- viability, T/C [45]: 64.3%
- viability, T/C [46]: 59.5%
- viability, T/C [33]: 90.2%
- viability, T/C [34]: 78.5%
- viability, T/C [35]: 75%
- viability, T/C [36]: 65.5%
- viability, T/C [47]: 53.5%
- viability, T/C [48]: 53.4%
